Measured values as given in PMC10882719 (Frontiers in Neuroscience, 2024).
Read-outs that look alike come from different tables or passages of the source.

Columns and labels:
Format in all cases: cell-based
[1] = target: T1, 168 GPCRs (Homo sapiens, UniProt P30872); details: SSTR1
T1 construct: host or cells: PathHunter cell lines

[2] = target: T2, 168 GPCRs (Homo sapiens, UniProt P30874); details: SSTR2
T2 construct: host or cells: PathHunter cell lines

[3] = target: T3, 168 GPCRs (Homo sapiens, UniProt P48145)
T3 construct: host or cells: PathHunter cell lines
T3 sequence (P48145 1-328): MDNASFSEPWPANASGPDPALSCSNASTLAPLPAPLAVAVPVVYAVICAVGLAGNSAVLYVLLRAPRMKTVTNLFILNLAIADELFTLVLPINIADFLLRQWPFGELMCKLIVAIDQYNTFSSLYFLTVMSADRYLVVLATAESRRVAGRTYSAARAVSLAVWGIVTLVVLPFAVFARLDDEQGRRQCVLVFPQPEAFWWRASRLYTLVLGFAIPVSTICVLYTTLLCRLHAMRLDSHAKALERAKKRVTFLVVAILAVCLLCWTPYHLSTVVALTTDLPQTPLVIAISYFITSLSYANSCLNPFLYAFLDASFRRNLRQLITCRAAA

[4] = target: T4, 168 GPCRs (Homo sapiens, UniProt Q969F8); details: KISS1R
T4 construct: host or cells: PathHunter cell lines

[5] = target: T5, 168 GPCRs (Homo sapiens, UniProt P21462)
T5 construct: host or cells: PathHunter cell lines
T5 sequence (P21462 1-350): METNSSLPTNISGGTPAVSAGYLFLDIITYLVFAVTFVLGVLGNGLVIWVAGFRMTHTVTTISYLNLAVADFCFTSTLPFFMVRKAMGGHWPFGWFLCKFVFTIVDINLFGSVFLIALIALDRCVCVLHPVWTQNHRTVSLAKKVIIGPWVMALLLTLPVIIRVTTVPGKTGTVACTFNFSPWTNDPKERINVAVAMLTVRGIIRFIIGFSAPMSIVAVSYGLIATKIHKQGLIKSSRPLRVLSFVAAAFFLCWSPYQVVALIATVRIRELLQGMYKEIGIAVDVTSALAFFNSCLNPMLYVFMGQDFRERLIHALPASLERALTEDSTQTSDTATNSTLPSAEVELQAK

[6] = target: T6, 168 GPCRs (Homo sapiens, UniProt P49019); details: GPR109B
T6 construct: host or cells: PathHunter cell lines

[7] = target: T7, 168 GPCRs (Homo sapiens, UniProt P08588)
T7 construct: host or cells: PathHunter cell lines

[8] = target: T8, 168 GPCRs (Homo sapiens, UniProt P16473); details: TSHR(L)
T8 construct: host or cells: PathHunter cell lines

[9] = target: T9, 168 GPCRs (Homo sapiens, UniProt P25024)
T9 construct: host or cells: PathHunter cell lines
T9 sequence (P25024 1-350): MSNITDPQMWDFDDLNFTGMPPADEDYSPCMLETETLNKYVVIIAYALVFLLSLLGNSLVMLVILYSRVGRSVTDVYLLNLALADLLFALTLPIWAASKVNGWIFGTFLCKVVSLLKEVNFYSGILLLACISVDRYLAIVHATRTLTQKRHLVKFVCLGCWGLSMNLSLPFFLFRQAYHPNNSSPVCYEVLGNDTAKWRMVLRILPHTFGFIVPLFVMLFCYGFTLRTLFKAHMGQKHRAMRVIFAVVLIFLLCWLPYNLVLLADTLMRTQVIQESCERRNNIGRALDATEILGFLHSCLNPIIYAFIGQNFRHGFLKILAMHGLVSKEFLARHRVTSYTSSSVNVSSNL

T1 sequence (P30872 whole entry): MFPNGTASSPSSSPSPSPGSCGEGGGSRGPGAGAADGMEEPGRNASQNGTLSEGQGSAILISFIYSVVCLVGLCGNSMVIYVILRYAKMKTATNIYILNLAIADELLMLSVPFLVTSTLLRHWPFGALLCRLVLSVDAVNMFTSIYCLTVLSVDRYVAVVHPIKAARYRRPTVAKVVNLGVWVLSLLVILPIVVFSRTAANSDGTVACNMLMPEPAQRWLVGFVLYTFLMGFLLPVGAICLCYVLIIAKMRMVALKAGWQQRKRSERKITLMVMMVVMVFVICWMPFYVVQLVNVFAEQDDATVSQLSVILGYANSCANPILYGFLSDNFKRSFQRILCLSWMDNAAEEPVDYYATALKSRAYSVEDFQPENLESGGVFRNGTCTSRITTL
T8 sequence (P16473 21-764): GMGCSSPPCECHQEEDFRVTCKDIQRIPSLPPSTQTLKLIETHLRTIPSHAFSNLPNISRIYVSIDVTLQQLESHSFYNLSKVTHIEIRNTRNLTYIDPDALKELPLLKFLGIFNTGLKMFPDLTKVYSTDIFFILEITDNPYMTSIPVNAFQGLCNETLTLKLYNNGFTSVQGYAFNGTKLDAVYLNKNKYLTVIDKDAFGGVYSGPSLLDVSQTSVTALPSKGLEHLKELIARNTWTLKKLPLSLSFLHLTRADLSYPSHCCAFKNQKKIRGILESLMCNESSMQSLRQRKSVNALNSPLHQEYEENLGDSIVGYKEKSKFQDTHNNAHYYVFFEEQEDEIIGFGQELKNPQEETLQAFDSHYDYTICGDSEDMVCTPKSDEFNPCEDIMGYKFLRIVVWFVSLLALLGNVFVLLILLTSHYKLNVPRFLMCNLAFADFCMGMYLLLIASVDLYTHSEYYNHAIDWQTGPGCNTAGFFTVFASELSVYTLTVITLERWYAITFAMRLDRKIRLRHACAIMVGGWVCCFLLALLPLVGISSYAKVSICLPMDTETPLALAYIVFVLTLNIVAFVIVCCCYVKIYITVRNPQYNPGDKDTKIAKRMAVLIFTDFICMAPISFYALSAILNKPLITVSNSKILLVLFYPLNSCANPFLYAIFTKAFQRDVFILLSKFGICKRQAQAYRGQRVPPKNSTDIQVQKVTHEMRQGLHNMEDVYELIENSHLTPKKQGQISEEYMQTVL
T6 sequence (P49019 whole entry): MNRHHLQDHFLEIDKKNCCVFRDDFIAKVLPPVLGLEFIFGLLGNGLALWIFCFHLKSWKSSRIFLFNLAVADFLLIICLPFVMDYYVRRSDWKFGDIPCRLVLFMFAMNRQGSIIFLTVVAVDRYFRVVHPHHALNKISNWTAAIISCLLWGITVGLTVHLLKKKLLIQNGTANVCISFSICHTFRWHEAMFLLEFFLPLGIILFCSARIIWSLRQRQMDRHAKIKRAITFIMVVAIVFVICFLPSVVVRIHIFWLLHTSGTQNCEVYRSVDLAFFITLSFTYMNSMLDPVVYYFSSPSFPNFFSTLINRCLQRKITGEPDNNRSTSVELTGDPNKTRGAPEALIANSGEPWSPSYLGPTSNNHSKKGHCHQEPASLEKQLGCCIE
T7 sequence (P08588 whole entry): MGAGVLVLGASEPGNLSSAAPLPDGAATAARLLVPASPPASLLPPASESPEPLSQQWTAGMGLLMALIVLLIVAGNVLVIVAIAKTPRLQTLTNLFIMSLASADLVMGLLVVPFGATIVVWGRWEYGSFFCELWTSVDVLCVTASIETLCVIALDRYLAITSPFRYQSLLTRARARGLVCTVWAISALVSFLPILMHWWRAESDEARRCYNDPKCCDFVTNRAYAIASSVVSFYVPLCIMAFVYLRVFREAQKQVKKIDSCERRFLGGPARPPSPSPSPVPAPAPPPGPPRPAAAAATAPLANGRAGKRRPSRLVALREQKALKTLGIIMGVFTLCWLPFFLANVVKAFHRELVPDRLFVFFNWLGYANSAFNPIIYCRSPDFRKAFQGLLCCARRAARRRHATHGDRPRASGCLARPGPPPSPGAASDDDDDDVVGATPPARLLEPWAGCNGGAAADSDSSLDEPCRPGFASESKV
T4 sequence (Q969F8 whole entry): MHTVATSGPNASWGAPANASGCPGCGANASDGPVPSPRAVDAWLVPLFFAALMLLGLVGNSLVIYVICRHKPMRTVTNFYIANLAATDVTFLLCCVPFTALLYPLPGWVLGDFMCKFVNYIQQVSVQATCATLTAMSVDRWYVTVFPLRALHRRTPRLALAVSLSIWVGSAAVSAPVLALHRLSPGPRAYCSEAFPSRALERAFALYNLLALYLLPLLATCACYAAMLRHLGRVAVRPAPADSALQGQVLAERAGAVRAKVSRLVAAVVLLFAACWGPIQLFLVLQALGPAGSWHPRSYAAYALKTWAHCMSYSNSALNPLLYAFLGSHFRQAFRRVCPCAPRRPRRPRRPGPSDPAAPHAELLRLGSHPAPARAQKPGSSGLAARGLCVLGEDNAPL
T2 sequence (P30874 whole entry): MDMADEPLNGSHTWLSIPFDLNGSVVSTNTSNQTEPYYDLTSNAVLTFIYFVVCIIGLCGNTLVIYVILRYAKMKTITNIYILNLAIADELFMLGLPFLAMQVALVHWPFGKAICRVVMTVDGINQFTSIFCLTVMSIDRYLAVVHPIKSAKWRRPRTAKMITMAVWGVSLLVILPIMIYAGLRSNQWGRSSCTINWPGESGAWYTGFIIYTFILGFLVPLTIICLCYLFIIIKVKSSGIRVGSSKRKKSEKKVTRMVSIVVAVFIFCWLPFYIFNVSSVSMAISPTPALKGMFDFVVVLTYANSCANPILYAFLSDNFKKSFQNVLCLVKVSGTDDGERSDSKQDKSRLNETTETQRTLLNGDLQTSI

Compound	% Agonist Activity ([1]; Conc 1 uM) [%]	% Antagonist Activity ([1]; Conc 1 uM) [%]	% Agonist Activity ([1]; Conc 10 uM) [%]	% Antagonist Activity ([1]; Conc 10 uM) [%]	% Agonist Activity ([2]; Conc 1 uM) [%]	% Antagonist Activity ([2]; Conc 1 uM) [%]	% Agonist Activity ([2]; Conc 10 uM) [%]	% Antagonist Activity ([2]; Conc 10 uM) [%]	% Agonist Activity ([3]; NPBWR1, 1 uM) [%]	% Antagonist Activity ([3]; NPBWR1, 1 uM) [%]	% Agonist Activity ([3]; NPBWR1, 10 uM) [%]	% Antagonist Activity ([3]; NPBWR1, 10 uM) [%]	% Agonist Activity ([4]; 1 uM) [%]	% Antagonist Activity ([4]; 1 uM) [%]	% Agonist Activity ([4]; 10 uM) [%]	% Antagonist Activity ([4]; 10 uM) [%]	% Agonist Activity ([5]; FPR1, 1 uM) [%]	% Antagonist Activity ([5]; FPR1, 1 uM) [%]	% Agonist Activity ([5]; FPR1, 10 uM) [%]	% Antagonist Activity ([5]; FPR1, 10 uM) [%]	further results
CNC(C)Cc1ccc2c(c1)OCO2 (stereo not drawn) [MDMA, 3,4-Methylenedioxy methamphetamine, reference compound]	-9	5.6	-12.3	7.5	0	2.7	0.2	9.1	-10.2	-7.5	-13.4	-8.5	-4.8	-13.9	-4.3	1.8	4.4	4.5	3.7	2.5	% Agonist Activity ([6]; 1 uM): 0.7%; % Antagonist Activity ([6]; 1 uM): -15.2%; % Agonist Activity ([6]; 10 uM): 1.4%; % Antagonist Activity ([6]; 10 uM): -11.4%; % Agonist Activity ([7]; ADRB1, 1 uM): 0.6%; % Antagonist Activity ([7]; ADRB1, 1 uM): 2%; % Agonist Activity ([7]; ADRB1, 10 uM): 0.5%; % Antagonist Activity ([7]; ADRB1, 10 uM): 1.9%; % Agonist Activity ([8]; Conc 1 uM): -0.6%; % Antagonist Activity ([8]; Conc 1 uM): -8%; % Agonist Activity ([8]; Conc 10 uM): 2.8%; % Antagonist Activity ([8]; Conc 10 uM): -5%; % Agonist Activity ([9]; CXCR1, 1 uM): -0.4%; % Antagonist Activity ([9]; CXCR1, 1 uM): -2.4%; % Agonist Activity ([9]; CXCR1, 10 uM): -0.3%; % Antagonist Activity ([9]; CXCR1, 10 uM): -4.6%
CNC(C)C(=O)c1ccc2c(c1)OCO2 (stereo not drawn) [methylone]	-5.3	32.4	-7.4	20.9	0	-0.4	0.7	-4.2	1.6	17.1	-1.9	25.1	-5.5	28.7	-3.7	14.5	2.2	-4.9	0.5	-11.4	% Agonist Activity ([6]; 1 uM): 1%; % Antagonist Activity ([6]; 1 uM): -16.5%; % Agonist Activity ([6]; 10 uM): 0.5%; % Antagonist Activity ([6]; 10 uM): -20.2%; % Agonist Activity ([7]; ADRB1, 1 uM): -1.7%; % Antagonist Activity ([7]; ADRB1, 1 uM): -0.8%; % Agonist Activity ([7]; ADRB1, 10 uM): -1.4%; % Antagonist Activity ([7]; ADRB1, 10 uM): -1.2%; % Agonist Activity ([8]; Conc 1 uM): -1.2%; % Antagonist Activity ([8]; Conc 1 uM): 6.1%; % Agonist Activity ([8]; Conc 10 uM): 0.7%; % Antagonist Activity ([8]; Conc 10 uM): -6.6%; % Agonist Activity ([9]; CXCR1, 1 uM): -0.5%; % Antagonist Activity ([9]; CXCR1, 1 uM): 12.1%; % Agonist Activity ([9]; CXCR1, 10 uM): -0.1%; % Antagonist Activity ([9]; CXCR1, 10 uM): 3.1%
